Source: patent publication EP3878446A1, “HSD11B1 INHIBITORS FOR USE IN IMMUNOTHERAPY AND USES THEREOF” (UNIVERSITE DE GENEVE, priority 2020, dated 2021)

Assays:
[1] = system: human peripheral blood mononuclear cell (PBMC); test: antigen recall assay (IFNγ secretion by CMV-stimulated PBMC, ELISA); assay type: cell-based; conditions: co-treatment: 1 µM HSD11B1 inhibitor + 1 µg/ml anti PD-1 (G4K), compared to anti-PD-1 or HSD11B1 inhibitor alone, 1 µg/ml CMV antigen, 50 ng/ml cortisone, 6 days, Fig. 1
Description: Response to immunotherapy rely on critical biological steps including antigen presentation and T cell activation. Therefore, the therapeutic potential of combining immunotherapy with HSD11B1 inhibition was investigated in an antigen recall assay as described below. Antigen recall assay is the gold standard in vitro method to assess the bioactivity of immune checkpoint inhibitors because it measures at the same time the potential of antigen presenting cells to activate T cell and the actual T cell activation, taking into account thereby the two critical mechanisms required for an optimal response to immunotherapy. The level of IFNγ secreted in this human immune cell-based assay is considered as a good indicator of the T cells activation to immunomodulatory molecules. Cryopreserved human peripheral blood mononuclear cell (PBMC) isolated from cytomegalovirus (CMV) positive heathy donors were thawed in a 37°C water bath and seeded in round bottom 96 well plates at 2 X 10^5 cells/well in 150 µL final volume of RPMI media supplemented with 10% fetal bovin serum, 1% non-essential amino acids, 0.01M Hepes, 1% Penicilin/Streptomycin, 1% L-glutamine and 50 ng/ml cortisone). […] Plates were incubated at 37°C, 6% CO2. After 6 days, supernatants were assayed for IFNγ by ELISA (Biolegend).

[2] = system: GFP-expressing Renca cells; test: murine T cell-mediated tumor cell-killing assay (growth of GFP Renca cells, Incucyte imaging); assay type: cell-based; conditions: combination: 10 µM HSD11B1 inhibitor + anti-PD-1 (mouse), compared to single treatments; 200 ng/ml 11-DHC; BMDCs, OT-I CD8 T cells, SIINFEKL loaded GFP Renca cells; Fig. 2
Method: Another critical biological mechanism required for an optimal response to immunotherapy of cancer is the capacity of T cells to kill the tumor target cells. The therapeutic potential of combining immunotherapy with HSD11B1 inhibition for the treatment of cancer was therefore assessed in a murine T cell-mediated tumor cell-killing assay. Wild type C57BL/6J murine bone marrow progenitors cells were maintained with 20 ng/ml GMCSF (Peprotech) to induce differentiation into bone marrow derived dendritic cells (BMDCs) for 6 days. At day 6, 2 X 10^4 BMDCs/well together with 2 X 10^3 Renca tumor cells/well were seeded in flat bottom 96 well plate in RPMI 1640 supplemented with 10% FBS, 1% Penicillin/streptomycin, 1% L-glutamine, […] betamercaptoethanol and 0.5% of sodium pyruvate, 32 ng/ml R848 (Invivogen) and 25 µg/ml ovalbumin (Invivogen). After 24 hours, cell supernatant was removed and 1x10^5 OT-I CD8 T cells/well were added in very low endotoxin RPMI 1640 medium supplemented with 10% fetal bovine serum, 1% L-glutamine, 1% penicillin-streptomycin, 1% sodium-pyruvate, 1% glutamine, 1%, non-essential amino acids and […] beta-mercaptoethanol. After 24 hours, 5x10^3 H2kb-recombined; SEQ ID NO: 1 […] (Invivogen) loaded-GFP-expressing Renca cells/well were added. The growth of GFP Renca cells was measured and quantified in real time by cell imaging using the Incucyte technology. […]

SMILES | level on IFNγ [1] | growth of tumor cells [2]
CC1(C)[C@@H](OC(=O)CCC(=O)O)CC[C@]2(C)[C@H]3C(=O)C=C4[C@@H]5C[C@@](C)(C(=O)O)CC[C@]5(C)CC[C@@]4(C)[C@]3(C)CC[C@@H]12 [carbenoxolone, (2S,4aS,6aR,6aS,6bR,8aR,10S,12aS,14bR )-10-(3-carboxypropanoyloxy)-2,4a,6a,6b,9,9,12a-heptamethyl-13-oxo-3,4,5,6,6a,7,8,8a,10,11,12,14b-dodecahydro-1H-picene-2-carboxylic acid] | significantly increased | 
O=C(O)CC1CC2(CCN(C(=O)NC3C4CC5CC(C4)CC3C5)CC2)c2c(Br)cccc21 (racemic) [10J, (+/-)-2-(7-bromo-1'-((2-adamantyl)carbamoyl)-2,3-dihydrospiro [indene-1,4'-piperidine]-3-yl) acetic acid] | significantly increased | 
CC(C)(O)c1cccn2c(C3(c4ccc(Cl)cc4)CC3)nnc12 [BMS-823778, 2-[3-[1-(4-chlorophenyl)cyclopropyl]-[1,2,4]triazolo[4,3-a]pyridin-8-yl]propan-2-ol] | significantly increased | inhibited the growth of tumor cells more efficiently than the single treatments
